target: human BLT1 receptor (Homo sapiens (Human), UniProt Q15722); experiment: BLT-1 cAMP Assay; type: cell-based; details: antagonist mode; HEK293 cells recombinantly expressing human BLT1 receptor; forskolin 4 μM and LTB4 2 nM
Experimental: The ability of compounds to antagonize the human BLT1 receptor was determined using a kit to measure changes in intracellular cyclic AMP levels (cAMP dynamic assay kit, Cisbio Cat. No. 62AM4PEC). HEK293 cells recombinantly expressing human BLT1 receptor, previously frozen in Recovery Medium (Life Technologies, Cat. No. 12648-010) were thawed and diluted into assay medium (HBSS (Hyclone SH 30268.01), 20 mM HEPES (Gibco 15630-106), 800 μM IBMX (Sigma 15879), 0.1% DTPA BSA (Perkin Elmer CR84-100)). The cell suspension was centrifuged at 200×g for 10 min and then resuspended in fresh assay medium to a density of 2.5×10^5 cells/mL. A Labcyte Echo 550 acoustic dispenser was used to transfer 25 nL of test compound dissolved in DMSO into the wells of a dry 384-well plate (Greiner 784075). All subsequent liquid additions were performed using a BIORAPTR (FRD; Beckman Coulter). Next, 5 μL of cell suspension was added and incubated for 20 min. at 37° C. and 5% CO2 in a humidified plastic tray. To test for agonist activity 5 μL of assay buffer containing forskolin (Sigma F-6886. 4 μM for BLT1) was added and incubated for 30 minutes at 37° C. and 5% CO2 in a humidified plastic tray. To test for antagonist activity 5 μL of assay buffer containing forskolin (Sigma F-6886. 4 μM for BLT1) and either LTB4 (Sigma Aldrich L0517; 2 nM BLT1) was added and incubated for 30 minutes at 37° C. and 5% CO2 in a humidified plastic tray.
The levels of cAMP were detected using the CisBio kit following the manufacturer's instructions: cAMP-d2 vial was reconstituted with distilled water and then diluted accordingly with conjugate & lysis buffer. 5 μL of cAMP-d2 working solution was added to all of the wells of the assay plate. cAMP-Cryptate vial was reconstituted with distilled water and then diluted accordingly with conjugate & lysis buffer. 5 μL of cAMP-Cryptate working solution were added to the assay plate. The assay plate was shaken for 3 minutes and incubated at room temperature for 45 minutes, then read on Perkin Elmer Envision. cAMP standard curve and fit data were plotted using a 4 parameter dose response curve fitting algorithm to fit curve. A 4-parameter curve fit (Max, min, log EC50 and slope) was used to transform fluorescent 665 nm/615 nm ratio signal to cAMP concentration. After normalization to treated and untreated controls, the percent effect of signal at each compound concentration was calculated. The plot of percent effect versus the log of compound concentration was fit with a 4-parameter concentration response equation to calculate EC50 values. Compound concentrations tested were 10 000, 3 333, 1 111, 370.4, 123.4, 41.2, 13.7, 4.6, 1.5 and 0.5 nM with 0.25% residual DMSO.

Chain of human BLT1 receptor (Q15722 whole entry): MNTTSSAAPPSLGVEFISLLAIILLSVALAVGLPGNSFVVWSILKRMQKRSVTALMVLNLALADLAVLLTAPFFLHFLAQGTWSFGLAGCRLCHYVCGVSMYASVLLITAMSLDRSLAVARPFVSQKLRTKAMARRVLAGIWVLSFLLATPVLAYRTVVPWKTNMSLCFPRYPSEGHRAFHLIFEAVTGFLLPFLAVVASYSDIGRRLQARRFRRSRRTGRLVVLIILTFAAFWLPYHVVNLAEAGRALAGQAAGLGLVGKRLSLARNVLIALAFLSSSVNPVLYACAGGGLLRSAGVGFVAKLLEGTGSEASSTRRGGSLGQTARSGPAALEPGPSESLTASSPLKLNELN

SMILES	EC50 [nM]
CC1(S(=O)(=O)NC(=O)c2ccccc2-c2ccc3c(c2)OC[C@@H](Cc2ccc(-c4cncs4)cn2)[C@@H]3O)CC1 (single isomer, unassigned) [Example 3, 2-((3R, 4S or 3S, 4R)-4-Hydroxy-3-((5-(thiazol-5-yl)pyridin-2-yl)methyl)chroman-7-yl)-N-((1-methylcyclopropyl)sulfonyl)benzamide]	78
Cc1ncc(-c2ccc(C[C@@H]3COc4cc(-c5ccccc5C(=O)NS(=O)(=O)C5CC5)ccc4[C@H]3O)nc2)s1 (racemic) [Example 9, N-(Cyclopropylsulfonyl)-2-((rac-trans)-4-hydroxy-3-((5-(2-methylthiazol-5-yl)pyridin-2-yl)methyl)chroman-7-yl)benzamide]	9
Cc1ncc(-c2ccc(C[C@@H]3COc4cc(-c5ccccc5C(=O)NS(=O)(=O)C5CC5)ccc4[C@H]3O)nc2)s1 (single isomer, unassigned) [Example 11, N-(Cyclopropylsulfonyl)-2-((3R,4S or 3S,4R)-4-hydroxy-3-((5-(2-methylthiazol-5-yl)pyridin-2-yl)methyl)chroman-7-yl)benzamide]	391
CC(C)(C)S(=O)(=O)NC(=O)c1ccccc1-c1ccc2c(c1)OC[C@H](Cc1ccc(-c3cncs3)cn1)[C@H]2O (single isomer, unassigned) [Example 5, N-(tert-Butylsulfonyl)-2-((3S, 4R or 3R, 4S)-4-hydroxy-3-((5-(thiazol-5-yl)pyridin-2-yl)methyl)chroman-7-yl)benzamide]	5
O=C(NS(=O)(=O)C1CC1)c1ccccc1-c1ccc2c(c1)OC[C@@H](Cc1ccc(-c3cncs3)cn1)[C@@H]2O (racemic) [Example 8, N-(Cyclopropylsulfonyl)-2-((rac-trans)-4-hydroxy-3-((5-(thiazol-5-yl)pyridin-2-yl)methyl)chroman-7-yl)benzamide]	12
CC(C)(C)S(=O)(=O)NC(=O)c1ccccc1-c1ccc2c(c1)OC[C@@H](Cc1ccc(-c3cncs3)cn1)[C@@H]2O (racemic) [Example 4, N-(tert-Butylsulfonyl)-2-((rac-trans)-4-hydroxy-3-((5-(thiazol-5-yl)pyridin-2-yl)methyl)chroman-7-yl)benzamide]	8
CC1(S(=O)(=O)NC(=O)c2ccccc2-c2ccc3c(c2)OC[C@H](Cc2ccc(-c4cncs4)cn2)[C@H]3O)CC1 (single isomer, unassigned) [Example 2, 2-((3S, 4R or 3R, 4S)-4-Hydroxy-3-((5-(thiazol-5-yl)pyridin-2-yl)methyl)chroman-7-yl)-N-((1-methylcyclopropyl)sulfonyl)benzamide]	6
CC(C)(C)S(=O)(=O)NC(=O)c1ccccc1-c1ccc2c(c1)OC[C@@H](Cc1ccc(-c3cncs3)cn1)[C@@H]2O (single isomer, unassigned) [Example 6, N-(tert-Butylsulfonyl)-2-((3R, 4S or 3S, 4R)-4-hydroxy-3-((5-(thiazol-5-yl)pyridin-2-yl)methyl)chroman-7-yl)benzamide]	128
Cc1ncc(-c2ccc(C[C@@H]3COc4cc(-c5ccccc5C(=O)NS(=O)(=O)C(C)(C)C)ccc4[C@H]3O)nc2)s1 (racemic) [Example 7, N-(tert-Butylsulfonyl)-2-((rac-trans)-4-hydroxy-3-((5-(2-methylthiazol-5-yl)pyridin-2-yl)methyl)chroman-7-yl)benzamide]	5
Cc1ncc(-c2ccc(C[C@H]3COc4cc(-c5ccccc5C(=O)NS(=O)(=O)C5CC5)ccc4[C@@H]3O)nc2)s1 (single isomer, unassigned) [Example 10, N-(Cyclopropylsulfonyl)-2-((3S,4R or 3R,4S)-4-hydroxy-3-((5-(2-methylthiazol-5-yl)pyridin-2-yl)methyl)chroman-7-yl)benzamide]	6
CC1(S(=O)(=O)NC(=O)c2ccccc2-c2ccc3c(c2)OC[C@@H](Cc2ccc(-c4cncs4)cn2)[C@@H]3O)CC1 [Example 1, 2-((Rac-trans)-4-Hydroxy-3-((5-(thiazol-5-yl)pyridin-2-yl)methyl)chroman-7-yl)-N-((1-methylcyclopropyl)sulfonyl)benzamide]	6

From patent US10370368B2, “Aryl acylsulfonamides as BLT1 antagonists” (Merck Sharp & Dohme Corp., priority 2015, dated 2019)
